This is an account of results in article PMC7594877, “Multidirectional in vitro and in cellulo studies as a tool for identification of multi-target-directed ligands aiming at symptoms and causes of Alzheimer’s disease” (Journal of Enzyme Inhibition and Medicinal Chemistry, 2020).

For data set [1], the target named is T1, tau (Homo sapiens, UniProt P10636).
T1 construct: expressed in transfected cells; host or cells: E. coli BL21 (DE3) with pTARA (T7 RNA polymerase under pBAD) and pRKT42
Further details: method as in di Pietro et al. 38. The conditions noted are these: at 10 µM; ref di Pietro et al. 38; cited from earlier work.

The target of data set [2] is T2, Aβ42 (Homo sapiens, UniProt P05067).
T2 construct: expressed in transfected cells; host or cells: E. coli BL21 (DE3) with pET28a-Aβ42, IPTG-induced
Further details: method as in di Pietro et al. 38. The conditions noted are these: at 10 µM; ref di Pietro et al. 38; cited from earlier work.

Data set [3] concerns the target T1, tau. Put plainly: In cellulo tau aggregation inhibition, Thioflavin S fluorescence in E. coli overexpressing tau. The class given is cell-based, Escherichia coli. The conditions noted are these: at 10 µM; mean of three experiments ± SEM. The source says: (§1) We screened multifunctional ligands from our in-house library for their anti-aggregating activity against Aβ and tau in the whole bacterial cells using the Thioflavin S (ThS) fluorescence assay. Bacterial cells overexpressing different proteins provide simple models that can be easily employed to monitor the mechanisms of protein aggregation related to a variety of conformational diseases[36]^,[37]. In our assay, E. coli system has been implemented to study the effect of potential Aβ42 and tau aggregation inhibitors within intact cells. The advantage of the test over in vitro tests is the fact that it considers the complexity of the cellular environment that plays a crucial role in tuning protein aggregation. This assay has been validated and successfully applied to assess the anti-aggregating properties of diverse chemical structures. Previously investigated tetrahydrobenzo[h][1,6] naphthyridine-6-chlorotacrine hybrid DP-128 was used as a reference compound[38]^,[39].
(§2) The assays were conducted according to the procedure described previously. All general chemicals were purchased from Sigma-Aldrich (St. Louis, MO) . Reagents for bacterial media were purchased from Conda (Sevilla, Spain). M9 minimal medium for 100 mL: 10 mL of salts 10× (0.68 g of Na2HPO4, 0.30 g of KH2PO4, 0.05 g of NaCl, 0.10 g of NH4Cl), 0.2 mL of 1 M MgSO4, 0.2 mL of 50 mM CaCl2, 2.5 mL of 20% glucose, and 87.1 mL of H2O.
(§3) E. coli competent cells BL21 (DE3) were transformed with the pET28a vector (Novagen, Inc., Madison, WI) carrying the DNA sequence of Aβ42 or with pTARA containing the RNA polymerase gene of T7 phage (T7RP) under the control of the promoter pBAD, then with pRKT42 vector encoding four repeats of tau protein in two inserts. For overnight culture preparation, 10 ml of M9 minimal medium containing 50 μg/mL of kanamycin (Aβ42) or 50 μg/mL of ampicillin and 12.5 μg/mL of chloramphenicol (tau) were inoculated with a colony of BL21 (DE3) bearing the plasmid Aβ42 or tau plasmids to be expressed at 37 °C and 180 rpm using an incubator shaker (Ovan, Barcelona, Spain). After overnight growth, the OD600 was usually 2 − 2.5. For expression of Aβ42 peptide/tau protein, 200 μL of overnight culture were transferred into Eppendorf tubes of 1.5 mL containing 790 μL of fresh M9 minimal medium with 50 μg/mL of kanamycin1 mM of isopropyl 1-thio-β-D-galactopyranoside (IPTG) (Aβ42) or 50 μg/mL of ampicillin, 12.5 μg/mL of chloramphenicol, 0.25% of arabinose (tau), and 25 μM of ThS and 10 μL of reference, tested compounds (1 mM in DMSO, final concentration: 10 μM) or DMSO. The samples were grown for 24 h at 37 °C and 180 rpm using an incubator shaker (Ovan). The samples with DMSO were prepared as a negative control (maximum level of Aβ42/tau, 0% of inhibition). In the positive controls, the M9 medium without IPTG (minimal level of Aβ42) or arabinose (minimal level of tau) was used. For absorbance and fluorescence determination, 200 μL of each Eppendorf tube was transferred in triplicate into 96-well plate. Finally, the fluorescence emission at 520 nm, when exciting at 440 nm and absorbance at 600 nm was recorded using the multi-mode microplate reader (Beckman Counter, Brea, CA). The absorbance at 600 nm (OD600) of these samples was assessed to check the bacterial growth and potential intrinsic toxicity of the tested compounds. Final data are the average of three independent experiments. DP-128 was used as a reference compound[38].

Data set [4] concerns the target T2, Aβ42. As to the kind of experiment: In cellulo Aβ42 aggregation inhibition, Thioflavin S fluorescence in E. coli overexpressing Aβ42. The class given is cell-based, Escherichia coli. The conditions noted are these: at 10 µM; mean of three experiments ± SEM.
Excerpt: as §1, §2, §3

A further data set concerns the target T3, human BACE1 (Homo sapiens, UniProt P56817).
T3 construct: purchased Panvera, Madison, WI (BACE1 FRET Assay Kit); host or cells: baculovirus-expressed
As to the kind of experiment: In vitro inhibition of human BACE1, FRET assay. The class given is biochemical. The conditions noted are these: mean of three experiments ± SEM; read-out: hBACE1 IC50. The method, then:
To further explore the multifunctional profile of the ligands, we screened them for their inhibitory activity against human BACE1 using spectrofluorometric assay (fluorescence resonance energy transfer (FRET)-based). […] Therefore, BACE1 inhibitors are now being tested in earlier stages of AD and in asymptomatic subjects at risk of AD, with the hope of blocking the disease process before it becomes irreversible.
BACE1 FRET Assay Kit (Panvera, Madison, WI) was performed according to the manufacturer’s protocol with small modifications. The Kit includes purified baculovirus-expressed BACE1 and specific peptide substrate (Rh-[…]-quencher), based on the “Swedish” mutant of APP. The analysis was carried, using 384-well black microplates and a microplate reader (EnSpire Multimode; PerkinElmer, Waltham, MA). The wavelength was optimised for the 553 nm excitation and 576 nm emission. Stock solutions of all test compounds were prepared in DMSO and further diluted with assay buffer (50 mM sodium acetate; pH 4.5). In the first step, 10 μL of BACE1 substrate was mixed with 10 μL of test compound (or assay buffer; i.e. blank sample), then 10 μL of the enzyme (1 U/mL) was added to start the reaction. After 60 min of incubation at 25 °C, 10 μL of stop solution (2.5 M sodium acetate) was applied to stop the reaction. The fluorescence signal was read at 576 nm. Percent of inhibition was calculated from [1 − (S60 − S0)/(C60 − C0)] × 100, where S0 and S60 are fluorescence intensities of the test sample (enzyme, substrate, test compound) at the beginning of the reaction and after 60 min, respectively, while C0 and C60 are analogical fluorescence intensities of the blank sample (enzyme, substrate, buffer). […] Each compound was analysed in triplicate. Commercially available BACE1 Inhibitor IV (Calbiochem, Merck; Nottingham, UK) was used as the reference compound. The IC50 values were calculated using nonlinear regression (GraphPad Prism 5 [GraphPad Software, San Diego, CA, 5.00]) by plotting the residual enzyme activities against the applied inhibitor concentration.

The subject of another data set is hAChE. The note with it: read-out: hAChE IC50; cited from earlier work.
Another data set relates to eqBuChE. The note with it: read-out: eqBuChE IC50; cited from earlier work.
The next data set concerns HepG2 cells. Put plainly: Cytotoxicity, MTS cell viability assay, HepG2. The class given is cell-based, human. The conditions noted are these: 24 h, read-out: LC50 (cell viability, MTS). The procedure: (§4) The human liver carcinoma HepG2 cell line was purchased from American Type Culture Collection (LGC Standards, UK). The human neuroblastoma SH-SY5Y cell line was purchased from American Type Culture Collection (CRL-2266, Manassas, VA). The cells were grown in Advanced Dulbecco’s modified Eagle’s medium (Sigma, St. Louis, MO) supplemented with 10% foetal bovine serum (FBS) (HyClone, Logan, UT), 2 mM L-glutamine, 50 U/mL penicillin and 50 μg/mL streptomycin (Sigma, St. Louis, MO) in a humidified atmosphere of 95% air and 5% CO2 at 37 °C, and grown to 80% confluence. Compound 3 was prepared as a stock solution of 20 mM in DMSO and was used at concentrations of 1–100 µM in case of HepG2 treatment, and at concentrations of 0.25–5 µM in case of SH-SY5Y treatment.
(§5) HepG2 and SH-SY5Y cells were seeded in 96-well plates (2 × 10^4/well) and assessed by MTS ([3–(4,5-dimethylthiazol-2-yl)-5–(3-carboxymethoxyphenyl)-2–(4-sulfophenyl)-2H-tetrazolium, inner salt) assay for their response to compound 3. Cells were treated as described above, and cell viability was assessed after 24 h using the CellTiter 96® Aqueous One Solution Cell Proliferation Assay (Promega, Madison, WI), following the manufacturer’s instructions. Absorbance was measured with an automatic microplate reader (Tecan Safire, Switzerland) at a wavelength of 492 nm.

The next data set has as its system SH-SY5Y cells. Put plainly: Cytotoxicity, MTS cell viability assay, SH-SY5Y. The class given is cell-based, human. The note with it: 24 h, read-out: LC50 (cell viability, MTS). The procedure: as §4, §5
A further data set addresses h5-HT6. Further details: method as in PMID 27560283, PMID 29384656. The note with it: read-out: 5-HT6 Ki; cited from earlier work.

pIC50, pKi: −log10 of the molar value. “And” between values parts separate entries of the source, which are not always exact repeats. Equal values may be shown once. Read-outs that look alike come from different tables or passages of the source. Marks after values point to notes of the source that are not given here.

T2 sequence (P05067 672-713): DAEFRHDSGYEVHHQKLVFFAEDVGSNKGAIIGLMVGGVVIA
T1 sequence (P10636 other isoform, or with tags, fused parts or gaps): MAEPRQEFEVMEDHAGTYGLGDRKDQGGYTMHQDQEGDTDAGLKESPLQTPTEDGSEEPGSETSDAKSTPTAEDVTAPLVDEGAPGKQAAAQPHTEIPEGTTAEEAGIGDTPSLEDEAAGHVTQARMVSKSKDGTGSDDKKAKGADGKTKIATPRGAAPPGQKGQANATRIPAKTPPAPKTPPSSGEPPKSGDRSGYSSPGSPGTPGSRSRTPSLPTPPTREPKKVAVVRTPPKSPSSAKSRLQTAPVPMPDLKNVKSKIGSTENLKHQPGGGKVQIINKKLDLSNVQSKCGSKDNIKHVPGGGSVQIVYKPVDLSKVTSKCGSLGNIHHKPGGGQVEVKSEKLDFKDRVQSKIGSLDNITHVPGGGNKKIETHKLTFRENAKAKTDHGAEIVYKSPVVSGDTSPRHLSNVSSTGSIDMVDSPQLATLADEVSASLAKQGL
T3 sequence (P56817 46-501): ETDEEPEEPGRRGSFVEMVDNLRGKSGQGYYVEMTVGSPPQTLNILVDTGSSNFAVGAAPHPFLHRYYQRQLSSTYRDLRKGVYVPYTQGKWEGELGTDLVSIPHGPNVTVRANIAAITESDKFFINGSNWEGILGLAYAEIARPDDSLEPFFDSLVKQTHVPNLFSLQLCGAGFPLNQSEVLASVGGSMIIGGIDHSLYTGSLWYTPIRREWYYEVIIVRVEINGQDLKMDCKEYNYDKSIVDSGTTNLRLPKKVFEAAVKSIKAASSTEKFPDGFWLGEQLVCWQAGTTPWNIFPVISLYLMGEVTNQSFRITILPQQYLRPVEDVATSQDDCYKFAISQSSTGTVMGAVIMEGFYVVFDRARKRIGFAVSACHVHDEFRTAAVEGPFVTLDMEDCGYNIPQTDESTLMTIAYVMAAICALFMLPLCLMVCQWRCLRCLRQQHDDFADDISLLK

As to `O=C(NCCCCCCCCNc1c2c(nc3cc(Cl)ccc13)CCCC2)c1ccc2nc(-c3ccc(Cl)cc3)c3c(c2c1)NCCC3` [DP-128], on tau [1], the “In cellulo tau inhibition %” value was 68.7 ± 0.5^d %. On Aβ42 [2], the “In cellulo Aβ42 inhibition %” value was 77.5 ± 0.9^d %.
On to `c1ccc(Cn2ccc3c(N4CCN(CCNc5c6c(nc7ccccc57)CCCC6)CC4)cccc32)cc1` [Compound 17], for which the “In cellulo tau inhibition %” value at tau [3] was 59% and 58.6 ± 4.5%. Besides, the “In cellulo Aβ42 inhibition %” value on Aβ42 [4] is 56% and 55.7 ± 2.8%. Also, the negative logarithm of the IC50 (pIC50) on human BACE1 was 5.40 and 5.39; in the data set on hAChE it was 7.59; in the data set with eqBuChE, 8.30.
`O=S(=O)(c1ccccc1)n1ccc2c(N3CCN(CCCCCCNc4c5c(nc6ccccc46)CCCC5)CC3)cccc21` [Compound 3]: the “In cellulo tau inhibition %” value on tau [3] was 38% and 37.6 ± 2.4%. Further, the “In cellulo Aβ42 inhibition %” value at Aβ42 [4] was 30% and 29.7 ± 4.0%. Moreover, the negative-log IC50 (pIC50) on human BACE1 was 5.14; in the data set with hAChE, 7.89; with eqBuChE it was 8.10. The CC50 is 6400 nM in the data set with HepG2 cells and 1000 nM with SH-SY5Y cells. In addition, at h5-HT6, the negative logarithm of the Ki (pKi) was 8.70.
